Entries after “also recorded” stand apart in the source; their conditions may differ. Blank lines part the entries; values can stand above or below the compound they belong to.
Assays:
Type in all cases: physicochemical
[1] = Storage stability of solid forms (crystalline form by XRPD, chemical purity by HPLC); details: for Purity after storage: HPLC
Procedure: XRPD patterns in the present disclosure were acquired by a Bruker X-ray powder diffractometer. The parameters of the X-ray powder diffraction method of the present disclosure are as follows: • X-Ray source: Cu, Kα • Kα1 (Å): 1.54060; Kα2 (Å): 1.54439 • Kα2/Kα1 intensity ratio: 0.50
A certain amount of the prior art solid obtained in Example 4 was packaged with sealed container (with desiccant inside), and stored under 40° C./75% RH. The solid form before and after storage was confirmed by XRPD.
A certain amount of Form CSI was packaged with corresponding package conditions, and then stored under 25° C./60% RH, 40° C./75% RH and 60° C./75% RH. Crystalline form and chemical purity were checked by XRPD and HPLC, respectively. Form CSI kept stable for at least 6 months when stored at 25° C./60% RH open and sealed (with desiccants) package, 40° C./75% RH open and sealed (with desiccants) package, and 60° C./75% RH sealed (with desiccants) package.
A certain amount of Form CSII sample was packaged with corresponding package conditions, and then stored at 25° C./60% RH and 40° C./75% RH. Crystalline form was checked by XRPD. Form CSII kept stable for at least 1 month for both open and sealed (with desiccants) package conditions at 25° C./60% RH and 40° C./75% RH.

[2] = Hygroscopicity and humidity stability by DVS (0% RH-95% RH-0% RH cycle at 25° C., XRPD before and after); details: for Hygroscopicity (in words) / Weight gain (water uptake) at 80% RH: DVS; for Form change after DVS test (humidity stability): one cycle 0% RH-95% RH-0% RH, XRPD
Procedure: DVS data in the present disclosure were measured via an SMS (Surface Measurement Systems Ltd.) intrinsic DVS instrument. The instrument control software is DVS-Intrinsic control software. Typical Parameters for DVS test are as follows: • Temperature: 25° C. • Gas and flow rate: N2, 200 mL/minRH range: 0% RH to 95% RH
The hygroscopicity of Form CSI was determined by a DVS instrument with a certain amount of sample. The mass at each relative humidity was recorded during a cycle of 0% RH-95% RH-0% RH at 25° C., and XRPD was collected before and after DVS test.
The hygroscopicity of Form CSII was determined by DVS instrument with a certain amount of sample. The mass at each relative humidity was recorded during the cycle of 0% RH-95% RH-0% RH at 25° C., and XRPD was tested before and after DVS.

[3] = Physical stability upon mechanical force (ball-milling, XRPD before and after grinding); details: 500 rpm, 5 minutes
Procedure: Form CSI was ground using a ball-milling at a vibration speed of 500 rpm for 5 minutes.
Form CSII was ground using a ball-milling at a vibration speed of 500 rpm for 5 minutes.

- Solid form after storage ([1]; 25° C./60% RH, sealed (with desiccants), 1 month, XRPD): Form CSII
- Time kept stable on storage ([1]; open and sealed (with desiccants) package at 25° C./60% RH and 40° C./75% RH): at least 1 month
- Hygroscopicity (in words) [2]: almost non hygroscopic
- Weight gain (water uptake) at 80% RH [2]: 0.19%
Compound: Cc1cc(Oc2ncccc2C(F)(F)F)ccc1-c1c(C)c(=O)[nH]c(=O)n1C (single isomer, unassigned) [Form CSII]
- Solid form after storage ([1]; 40° C./75% RH, sealed (with desiccants), 1 month, XRPD): remains unchanged; also recorded: Form CSII
- Form change after DVS test (humidity stability) [2]: No form change; also recorded: remains unchanged
- Form change after grinding [3]: no form change; also recorded: doesn't change after grinding

- Time kept stable on storage ([1]; 25° C./60% RH open and sealed (with desiccants), 40° C./75% RH open and sealed (with desiccants), 60° C./75% RH sealed (with desiccants)): at least 6 months
- Purity after storage ([1]; 25° C./60% RH, open, 6 months): 99.85%
- Solid form after storage ([1]; 25° C./60% RH, open, 6 months, XRPD): Form CSI
- Purity after storage ([1]; 25° C./60% RH, sealed (with desiccants), 6 months): 99.85%
- Solid form after storage ([1]; 25° C./60% RH, sealed (with desiccants), 6 months, XRPD): Form CSI
- Time remaining unchanged on storage ([1]; 40° C./75% RH): at least 6 months
- Purity after storage ([1]; 40° C./75% RH, open, 6 months): 99.85%
- Solid form after storage ([1]; 40° C./75% RH, open, 6 months, XRPD): Form CSI
- Purity after storage ([1]; 40° C./75% RH, sealed (with desiccants), 6 months): 99.85%
- Solid form after storage ([1]; 40° C./75% RH, sealed (with desiccants), 6 months, XRPD): Form CSI
- Purity after storage ([1]; 60° C./75% RH, sealed (with desiccants), 6 months): 99.85%
- Solid form after storage ([1]; 60° C./75% RH, sealed (with desiccants), 6 months, XRPD): Form CSI
- Time remaining unchanged on storage ([1]; 60° C./75% RH, sealed package): at least 6 months
- Hygroscopicity (in words) [2]: almost non hygroscopic
- Weight gain (water uptake) at 80% RH [2]: 0.05%
Compound: Cc1cc(Oc2ncccc2C(F)(F)F)ccc1-c1c(C)c(=O)[nH]c(=O)n1C (single isomer, unassigned) [Form CSI]
- Form change after DVS test (humidity stability) [2]: No form change; also recorded: remains unchanged
- Form change after grinding [3]: no form change; also recorded: doesn't change after grinding

Compound: Cc1cc(Oc2ncccc2C(F)(F)F)ccc1-c1c(C)c(=O)[nH]c(=O)n1C [prior art solid, reference compound]
- Solid form change after storage ([1]; 40° C./75% RH, sealed container with desiccant, 10 days, XRPD): undergoes crystal transformation; also recorded: undergoes crystalline transformation
